Assay results taken from patent US20070142348A1, “Microbicidal, prophylactic and therapeutic effect of ctc-96 on papilloma viruses” (REDOX PHARMACEUTICAL CORPORATION, AUDUBON […] AND […], priority 2003, published 2007).

Columns and labels:
[1] = test system: HPV-11; test: Prophylactic (topical microbicide) activity: human grafts exposed to CTC-96 for 1 hour, washed, then exposed to HPV-11; xenograft in the SCID mouse; assay type: in vivo
Experimental: Given the virucidal activity of CTC-96™, a series of experiments was performed to evaluate the prophylactic activity of the compound under conditions resembling that of the use of a topical microbicide. When using a topical microbicide the target organ is first exposed to the microbicide before exposure to the virus. Various concentrations of CTC-96™ were evaluated in a model of HPV-11-infected human xenograft in the SCID mouse. The human grafts were exposed to CTC-96™ for 1 hour prior to exposure to HPV-11 and engraftment. Because CTC-96™ is virucidal, it was washed off the foreskin fragments before exposure to the virus. The HPV-11-infected grafts were allowed to grow for 12 weeks. After 12 weeks, the animals were sacrificed and the grafts recovered, measured and processed. Graft size, expressed as the composite geometric mean diameter of the two grafts borne by the animal, was the primary endpoint. Histology of the grafts was examined for the presence of HPV. Grafts were also processed for detection of HPV-11 mRNAs transcripts by reverse transcriptase-polymerase chain reaction (RT-PCR).
Grafts that are not infected by HPV proliferate poorly and tend to be eliminated by the mouse's host defenses as a foreign body. The residual fibrous tissue is a scar. In order to analyze the results properly, grafts that were truly negative (graft showing a healthy human epithelium) as well as those showing a foreign body reaction or fibrous tissue were counted as negative for HPV.
Table 7 summarizes the immunocytochemistry results for the presence of HPV capsid antigen in the grafts. As the concentration of CTC-96™ increases, the number of grafts displaying either fibrous tissue or a foreign body reaction also increases. […] Again, a strong microbicidal effect of CTC-96™ is observed.

[2] = test system: HPV-11; test: Therapeutic activity of CTC-96 ointment on human condylomas induced by HPV-11, HPV-11-infected external human xenograft SCID mouse model; assay type: in vivo, SCID mice; details: for Graft Size Growth, Means ± SD: thrice a week for 6 weeks on the graft
Experimental: Two different dose levels of CTC-96™ (1%, 0.1%) in an ointment formulation and the vehicle alone were evaluated. SCID mice were grafted on each side of the dorsum with an HPV-11-infected foreskin fragment. The HPV-11-infected grafts were left to grow for 6 weeks before treatment was started and continued for 6 weeks. During the treatment phase, the drug was administered thrice a week, directly on the graft. Graft length, width, and height were measured every two weeks during the treatment phase. At the end of the study, the animals were sacrificed. The grafts were measured, recovered, and processed for histology. HPV infection in tissue sections is defined by the presence of two out of three of the following features: acanthosis, koilocytosis, or parakeratosis.
The Graft Size Growth (GSG) index was our primary endpoint in this evaluation of CTC-96™. […] However, there is also a marked increase in the variance of the GSG in the high dose CTC-96™ group.
In our analysis, to measure graft size growth we used a composite index that summarizes for each mouse the growth of the two grafts borne by the animal, each from a different foreskin donor. If instead we look at the growth of each individual graft, we can see that the means, medians, or variances of the graft size growth are more alike among the three treatment groups as shown in FIG. 1. The ANOVA fails to show a treatment effect on the growth of the individual grafts.

CC(/C=C(/C)[O-])=NCCN=C(C)/C=C(/C)[O-].Cc1ncc[nH]1.Cc1ncc[nH]1.[Br-].[Co+3] [CTC-96]
Histology: grafts Negative for HPV (percent) ([1]; CTC-96 0.05%): 30% | Histology: grafts Positive for HPV (number) ([1]; CTC-96 0.05%): 16 | Histology: grafts Positive for HPV (percent) ([1]; CTC-96 0.05%): 73% | Immunocytochemistry (HPV capsid antigen): grafts Negative (percent) ([1]; CTC-96 0.05%): 48% | Immunocytochemistry (HPV capsid antigen): grafts Positive (number) ([1]; CTC-96 0.05%): 12 | Immunocytochemistry (HPV capsid antigen): grafts Positive (percent) ([1]; CTC-96 0.05%): 52% | RT-PCR (HPV-11 mRNA): grafts Negative (number) ([1]; CTC-96 0.05%): 9 | RT-PCR (HPV-11 mRNA): grafts Negative (percent) ([1]; CTC-96 0.05%): 39% | RT-PCR (HPV-11 mRNA): grafts Positive (number) ([1]; CTC-96 0.05%): 14 | RT-PCR (HPV-11 mRNA): grafts Positive (percent) ([1]; CTC-96 0.05%): 61% | Immunocytochemistry (HPV capsid antigen): grafts Negative (number) ([1]; CTC-96 0.05%, foreign body/fibrous counted as negative): 11 | Histology: grafts Negative for HPV (number) ([1]; CTC-96 0.2%): 14 | Histology: grafts Negative for HPV (percent) ([1]; CTC-96 0.2%): 67% | Histology: grafts Positive for HPV (number) ([1]; CTC-96 0.2%): 7 | Histology: grafts Positive for HPV (percent) ([1]; CTC-96 0.2%): 33% | Immunocytochemistry (HPV capsid antigen): grafts Negative (number) ([1]; CTC-96 0.2%): 15 | Immunocytochemistry (HPV capsid antigen): grafts Negative (percent) ([1]; CTC-96 0.2%): 71% | Immunocytochemistry (HPV capsid antigen): grafts Positive (number) ([1]; CTC-96 0.2%): 6 | Immunocytochemistry (HPV capsid antigen): grafts Positive (percent) ([1]; CTC-96 0.2%): 29% | RT-PCR (HPV-11 mRNA): grafts Negative (number) ([1]; CTC-96 0.2%): 17 | RT-PCR (HPV-11 mRNA): grafts Negative (percent) ([1]; CTC-96 0.2%): 81% | RT-PCR (HPV-11 mRNA): grafts Positive (number) ([1]; CTC-96 0.2%): 4 | RT-PCR (HPV-11 mRNA): grafts Positive (percent) ([1]; CTC-96 0.2%): 19% | Histology: grafts Negative for HPV (number) ([1]; CTC-96 1%): 22 | Histology: grafts Negative for HPV (percent) ([1]; CTC-96 1%): 100% | Histology: grafts Positive for HPV (number) ([1]; CTC-96 1%): 0 | Histology: grafts Positive for HPV (percent) ([1]; CTC-96 1%): 0% | Immunocytochemistry (HPV capsid antigen): grafts Negative (number) ([1]; CTC-96 1%): 22 | Immunocytochemistry (HPV capsid antigen): grafts Negative (percent) ([1]; CTC-96 1%): 100% | Immunocytochemistry (HPV capsid antigen): grafts Positive (number) ([1]; CTC-96 1%): 0 | Immunocytochemistry (HPV capsid antigen): grafts Positive (percent) ([1]; CTC-96 1%): 0% | RT-PCR (HPV-11 mRNA): grafts Negative (number) ([1]; CTC-96 1%): 14 | RT-PCR (HPV-11 mRNA): grafts Negative (percent) ([1]; CTC-96 1%): 78% | RT-PCR (HPV-11 mRNA): grafts Positive (number) ([1]; CTC-96 1%): 4 | RT-PCR (HPV-11 mRNA): grafts Positive (percent) ([1]; CTC-96 1%): 22% | Graft size (composite geometric mean diameter) versus control, FIG. 2 ([1]; all CTC-96 concentrations, 12 weeks): dramatic and highly statistically significant microbicidal effect | Histology: grafts Negative for HPV (number) ([1]; grafts pre-exposed to CTC-96 0.05%, foreign body/fibrous counted as negative): 7 | Graft Size Growth, Median ([2]; CTC-96 0.1% ointment): 60.51% | Graft Size Growth, Means ± SD ([2]; CTC-96 0.1% ointment): 64.53 ± 41.92% | Graft Size Growth, Median ([2]; CTC-96 1% ointment): 52.03% | Graft Size Growth, Means ± SD ([2]; CTC-96 1% ointment): 91.39 ± 127.84% | Effect on the growth of HPV-11-induced papillomas ([2]; mouse, in vivo): no detectable effect
